Reference: ChEMBL document CHEMBL1201862, “PubChem BioAssay data set” (2004)
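Method: 48-hour compound exposure of cells in 96-well plates, five concentrations, linear interpolation of endpoints. Abbreviation: GI50, concentration required for 50% inhibition of growth.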 Active and inactive are the calls of the source. Cut-off read from the data, not from the text of the source: active = GI50 up to about 1.1 µM and inactive = higher.

How the values were obtained:
Assay in all cases: DTP human tumour cell line panel, 48 h
[1] = system: NCI-H23
[2] = system: CCRF-CEM
[3] = system: SK-MEL-5
[4] = system: PC-3
[5] = system: SF-539
[6] = system: HT-29
[7] = system: UACC-257
[8] = system: SN12C
[9] = system: OVCAR-4
[10] = system: BT-549
[11] = system: OVCAR-5
[12] = system: HOP-92
[13] = system: SNB-75
[14] = system: HCT-116
[15] = system: HOP-62
[16] = system: COLO 205
[17] = system: OVCAR-3
[18] = system: RPMI-8226
[19] = system: UACC-62
[20] = system: SR
[21] = system: Hs-578T
[22] = system: MDA-MB-231
[23] = system: M14
[24] = system: UO-31
[25] = system: TK-10
[26] = system: HCT-15
[27] = system: OVCAR-8
[28] = system: 786-0
[29] = system: A498
[30] = system: DU-145
[31] = system: SW-620
[32] = system: HCC 2998
[33] = system: ACHN
[34] = system: MDA-MB-435
[35] = system: SF-295
[36] = system: CAKI-1
[37] = system: SK-OV-3
[38] = system: U-251
[39] = system: SK-MEL-2
[40] = system: EKVX
[41] = system: LOX IMVI
[42] = system: MCF7
[43] = system: SNB-19
[44] = system: RXF 393
[45] = system: NCI-H460
[46] = system: IGROV-1
[47] = system: NCI/ADR-RES
[48] = system: SF-268
[49] = system: SK-MEL-28
[50] = system: A549
[51] = system: MOLT-4
[52] = system: K562
[53] = system: KM12
[54] = system: NCI-H226
[55] = system: MDA-N
[56] = system: T47D
[57] = system: Malme-3M
[58] = system: NCI-H522
[59] = system: HL-60

Which GI50 [1] does the source give for `O=c1nc2n(CCO)c(-c3ccccc3)c(-c3ccccc3)nc-2c(=O)[nH]1` here?
Its GI50 is > 100 µM (inactive).

And the GI50 [2]?
The GI50 was > 100 µM (inactive).

And the GI50 [3]?
The GI50 was > 100 µM (inactive).

What about the GI50 [4] of the same compound?
Its GI50 is > 100 µM (inactive).

And the GI50 [5]?
The GI50 was > 100 µM (inactive).

What about the GI50 [6] of the same compound?
The GI50 was > 100 µM (inactive).

And the GI50 [7]?
Its GI50 is > 100 µM (inactive).

And the GI50 [8]?
Its GI50 is > 100 µM (inactive).

What about the GI50 [9] of the same compound?
Its GI50 is > 100 µM (inactive).

And the GI50 [10]?
Its GI50 is > 100 µM (inactive).

And the GI50 [11]?
Its GI50 is > 100 µM (inactive).

What about the GI50 [12] of the same compound?
Its GI50 is 88.9 µM (inactive).

And the GI50 [13]?
Its GI50 is > 100 µM (inactive).

And the GI50 [14]?
The GI50 was > 100 µM (inactive).

What about the GI50 [15] of the same compound?
The GI50 was > 100 µM (inactive).

What about the GI50 [16] of the same compound?
Its GI50 is > 100 µM (inactive).

What about the GI50 [17] of the same compound?
The GI50 was > 100 µM (inactive).

And the GI50 [18]?
The GI50 was > 100 µM (inactive).

What about the GI50 [19] of the same compound?
The GI50 was > 100 µM (inactive).

And the GI50 [20]?
The GI50 was 40.6 µM (inactive).

And the GI50 [21]?
Its GI50 is > 100 µM (inactive).

What about the GI50 [22] of the same compound?
Its GI50 is > 100 µM (inactive).

And the GI50 [23]?
Its GI50 is > 100 µM (inactive).

What about the GI50 [24] of the same compound?
The GI50 was > 100 µM (inactive).

What about the GI50 [25] of the same compound?
Its GI50 is > 100 µM (inactive).

And the GI50 [26]?
The GI50 was over 100 µM.

What about the GI50 [27] of the same compound?
The GI50 was > 100 µM (inactive).

And the GI50 [28]?
The GI50 was > 100 µM (inactive).

What about the GI50 [29] of the same compound?
Its GI50 is > 100 µM (inactive).

And the GI50 [30]?
The GI50 was > 100 µM (inactive).

What about the GI50 [31] of the same compound?
The GI50 was > 100 µM (inactive).

What about the GI50 [32] of the same compound?
Its GI50 is > 100 µM (inactive).

And the GI50 [33]?
The GI50 was > 100 µM (inactive).

What about the GI50 [34] of the same compound?
The GI50 was > 100 µM (inactive).

And the GI50 [35]?
Its GI50 is > 100 µM (inactive).

And the GI50 [36]?
The GI50 was > 100 µM (inactive).

And the GI50 [37]?
The GI50 was > 100 µM (inactive).

What about the GI50 [38] of the same compound?
Its GI50 is > 100 µM (inactive).

And the GI50 [39]?
The GI50 was > 100 µM (inactive).

What about the GI50 [40] of the same compound?
Its GI50 is > 100 µM (inactive).

What about the GI50 [41] of the same compound?
Its GI50 is > 100 µM (inactive).

What about the GI50 [42] of the same compound?
The GI50 was > 100 µM (inactive).

What about the GI50 [43] of the same compound?
Its GI50 is > 100 µM (inactive).

What about the GI50 [44] of the same compound?
Its GI50 is > 100 µM (inactive).

And the GI50 [45]?
Its GI50 is > 100 µM (inactive).

What about the GI50 [46] of the same compound?
The GI50 was > 100 µM (inactive).

And the GI50 [47]?
The GI50 was > 100 µM (inactive).

And the GI50 [48]?
Its GI50 is > 100 µM (inactive).

And the GI50 [49]?
Its GI50 is > 100 µM (inactive).

And the GI50 [50]?
The GI50 was > 100 µM (inactive).

What about the GI50 [51] of the same compound?
Its GI50 is > 100 µM (inactive).

And the GI50 [52]?
Its GI50 is > 100 µM (inactive).

What about the GI50 [53] of the same compound?
The GI50 was > 100 µM (inactive).

And the GI50 [54]?
The GI50 was > 100 µM (inactive).

And the GI50 [55]?
Its GI50 is > 100 µM (inactive).

And the GI50 [56]?
The GI50 was > 100 µM (inactive).

What about the GI50 [57] of the same compound?
Its GI50 is > 100 µM (inactive).

And the GI50 [58]?
The GI50 was > 100 µM (inactive).

Which GI50 [1] does the source give for `CCOC(=O)N1N(c2ccccc2)C(=O)C1(c1ccccc1)c1ccccc1` here?
The GI50 was > 100 µM (inactive).

And the GI50 [2]?
The GI50 was 66.5 µM (inactive).

What about the GI50 [3] of the same compound?
The GI50 was 33.8 µM (inactive).

And the GI50 [4]?
The GI50 was 19.2 µM (inactive).

What about the GI50 [5] of the same compound?
Its GI50 is > 100 µM (inactive).

And the GI50 [6]?
The GI50 was 22 µM (inactive).

What about the GI50 [7] of the same compound?
The GI50 was > 100 µM (inactive).

What about the GI50 [8] of the same compound?
The GI50 was > 100 µM (inactive).

And the GI50 [9]?
The GI50 was > 100 µM (inactive).

And the GI50 [10]?
Its GI50 is > 100 µM (inactive).

And the GI50 [11]?
Its GI50 is > 100 µM (inactive).

And the GI50 [12]?
Its GI50 is 70.3 µM (inactive).

What about the GI50 [14] of the same compound?
The GI50 was 17.1 µM (inactive).

And the GI50 [15]?
The GI50 was 14.9 µM (inactive).

And the GI50 [16]?
Its GI50 is 80.9 µM (inactive).

And the GI50 [17]?
The GI50 was 40.5 µM (inactive).

And the GI50 [18]?
The GI50 was 14.7 µM (inactive).

And the GI50 [19]?
The GI50 was > 100 µM (inactive).

What about the GI50 [20] of the same compound?
Its GI50 is 87.5 µM (inactive).

What about the GI50 [21] of the same compound?
The GI50 was > 100 µM (inactive).

And the GI50 [22]?
Its GI50 is > 100 µM (inactive).

What about the GI50 [23] of the same compound?
The GI50 was > 100 µM (inactive).

And the GI50 [24]?
The GI50 was 51.6 µM (inactive).

And the GI50 [25]?
Its GI50 is > 100 µM (inactive).

And the GI50 [26]?
The GI50 was over 100 µM.

What about the GI50 [27] of the same compound?
Its GI50 is > 100 µM (inactive).

And the GI50 [28]?
The GI50 was > 100 µM (inactive).

What about the GI50 [29] of the same compound?
Its GI50 is > 100 µM (inactive).

And the GI50 [30]?
The GI50 was > 100 µM (inactive).

What about the GI50 [31] of the same compound?
Its GI50 is > 100 µM (inactive).

What about the GI50 [32] of the same compound?
The GI50 was > 100 µM (inactive).

What about the GI50 [33] of the same compound?
The GI50 was > 100 µM (inactive).

And the GI50 [34]?
The GI50 was > 100 µM (inactive).

And the GI50 [35]?
The GI50 was 99.1 µM (inactive).

What about the GI50 [36] of the same compound?
Its GI50 is > 100 µM (inactive).

And the GI50 [37]?
Its GI50 is > 100 µM (inactive).

And the GI50 [38]?
Its GI50 is 89.1 µM (inactive).

What about the GI50 [39] of the same compound?
Its GI50 is 20.4 µM (inactive).

What about the GI50 [40] of the same compound?
Its GI50 is 48.1 µM (inactive).

And the GI50 [41]?
The GI50 was 70.6 µM (inactive).

And the GI50 [42]?
The GI50 was 25.9 µM (inactive).

And the GI50 [43]?
The GI50 was > 100 µM (inactive).

What about the GI50 [44] of the same compound?
Its GI50 is 28.8 µM (inactive).

And the GI50 [46]?
Its GI50 is > 100 µM (inactive).

What about the GI50 [47] of the same compound?
The GI50 was > 100 µM (inactive).

What about the GI50 [48] of the same compound?
The GI50 was > 100 µM (inactive).

What about the GI50 [49] of the same compound?
Its GI50 is > 100 µM (inactive).

And the GI50 [50]?
The GI50 was > 100 µM (inactive).

What about the GI50 [51] of the same compound?
The GI50 was 20.1 µM (inactive).

What about the GI50 [52] of the same compound?
The GI50 was 34.8 µM (inactive).

What about the GI50 [53] of the same compound?
Its GI50 is 73.5 µM (inactive).

And the GI50 [59]?
The GI50 was 8.3 µM (inactive).

What about the GI50 [54] of the same compound?
The GI50 was 99.1 µM (inactive).

What about the GI50 [55] of the same compound?
Its GI50 is > 100 µM (inactive).

What about the GI50 [56] of the same compound?
The GI50 was 18.9 µM (inactive).

And the GI50 [57]?
The GI50 was 97.7 µM (inactive).

And the GI50 [58]?
Its GI50 is 44.8 µM (inactive).
